According to US20140323354A1, “Chemically Modified Ligase Cofactors, Donors and Acceptors” (priority 2010, published 2014):

Biological target: T1, T4 DNA ligase (Enterobacteria phage T4, UniProt P00970)
T1 construct: purchased New England Biolabs
Test: Ligation yield with modified ATP cofactors on matched and mismatched templates, PAGE analysis
Type: biochemical, bacteriophage T4
Conditions: for discrimination of modified cofactor between matched and mismatched templates: matched T-A versus mismatched C-A, G-A, A-A, panel of ten modified cofactors at 1 mM
Procedure: Each 20 μL reaction was performed in buffer containing 50 mM Tris-HCl (pH 7.5), 10 mM MgCl2, 10 mM dithiothreitol, 25 μg/ml bovine serum albumin. 1 mM ATP was added to the buffer separately. The donor (LP3′T w/PBS), acceptor (Com3F w/PBS), and template (Alg) were at 0.1 μM equimolar amounts. The acceptor, donor, and template were denatured at 95° C. for 3 minutes and annealed at 4° C. for 3 minutes. Ligation was initiated by adding 400 units of T4 ligase (New England Biolabs) to each reaction. Ligation proceeded at 16° C. for 20 minutes. Ligation was terminated by heating the reaction to 65° C. for 10 minutes and adding an equal volume of 2×TBE-Urea buffer (Invitrogen). Samples were run on 6% TBE-Urea Novex gels (Invitrogen). The gels were stained with SYBR Gold nucleic acid stain (Invitrogen) according to manufacturer's protocol.
ATP analogs were compared to the corresponding natural ATP cofactor for their ability to join matched and mismatched templates (FIG. 4). ATP analogs were evaluated for relative ligation yield in the presence of matched template (LP3′T Acceptor w/PBS and Alg template; T-A matched base pair at the 3′-end of the acceptor strand) to the relative yield when a mismatched template was used (LP3′C Acceptor w/PBS and Alg template; C-A mismatched base pair on 3′-end of the acceptor strand). Reactions were performed as described for Example 1, with a cofactor of interest included in the reaction at 1 mM concentration. Natural ATP substrate was compared to the following modified cofactors: 7-deaza-ATP (7-deaza-adenosine-5′-triphosphate), N1-methyl-ATP (N1-methyl-adenosine-5′-triphosphate), 2-amino-ATP (2-amino-adenosine-5′-triphosphate), 2′-amino-2′-deoxy-ATP (2′-amino-2′-deoxyadenosine-5′-triphosphate), 3′-amino-2′,3′-dideoxy-ATP (3′-amino-2′,3′-dideoxy-adenosine-5′-triphosphate) (FIG. 4). All modified cofactors supported ligation with similar efficiency to natural ATP when a matched template was employed.
One method of determining the ligation yield of a ligation component of interest (e.g., modified ligase cofactors, modified donors or modified acceptors) is by assigning a specificity number. Specificity numbers can be determined for example, by dividing the ligation yield of a matched case by the ligation yield of a mismatched case where a single base pair differs relative to the matched case. […] The yields are then normalized to the template readings in the same reaction, with subsequent normalization to the ligation yield for a reaction including the natural (ATP) cofactor, where ATP has a normalized yield of 1.0. For example, in the case of 2′-deoxy-ATP (2′-deoxy-adenosine-5′-triphosphate; FIG. 4), the ligation yield in the matched case (LP3′T Acceptor w/PBS and Alg template; T-A matched base pair on 3′ end of the acceptor strand) was 1.34. In the mismatched case (LP3′C Acceptor w/PBS and Alg template; C-A mismatched base pair on 3′ end of the acceptor strand) the ligation yield was 0.18. Accordingly, the specificity number assigned to 2′-deoxy-ATP in a C-A mismatch case was 1.34÷0.18 or 7.44. A value greater than one is indicative of improved ligation specificity. A value less than one is indicative of reduced ligation specificity.
ATP analogs were compared to the natural ATP cofactor for their ability to join matched and mismatched templates for relative ligation yield in the presence of matched template (LP3′T Acceptor w/PBS and Alg template; T-A matched base pair on 3′-end of the acceptor strand) relative to the yield of templates which contained a mismatched base pair on 3′-end of the acceptor: 1) LP3′C Acceptor w/PBS and Alg template; C-A mismatch, 2) LP3′G Acceptor w/PBS and Alg template; G-A mismatch, and 3) LP3′A Acceptor w/PBS and Alg template; A-A mismatch (FIG. 5). Reactions were performed as described for Example 1, with a cofactor of interest included in the reaction at 1 mM concentration. […]

T1 sequence (P00970 whole entry): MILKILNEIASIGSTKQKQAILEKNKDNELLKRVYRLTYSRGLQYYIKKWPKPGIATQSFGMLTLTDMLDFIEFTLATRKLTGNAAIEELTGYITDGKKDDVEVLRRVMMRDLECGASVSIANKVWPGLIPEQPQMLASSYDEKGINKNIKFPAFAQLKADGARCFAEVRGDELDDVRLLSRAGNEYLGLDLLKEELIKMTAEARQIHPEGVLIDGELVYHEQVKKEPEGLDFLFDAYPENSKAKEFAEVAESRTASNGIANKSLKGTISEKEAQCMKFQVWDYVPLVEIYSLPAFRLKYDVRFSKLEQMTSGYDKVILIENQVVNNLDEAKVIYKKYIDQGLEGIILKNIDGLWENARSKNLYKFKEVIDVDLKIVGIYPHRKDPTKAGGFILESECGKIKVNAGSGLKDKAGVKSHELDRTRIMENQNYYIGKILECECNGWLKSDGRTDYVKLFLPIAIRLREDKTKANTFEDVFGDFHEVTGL

Row | SMILES | ligation yield in the mismatched case (LP3′C Acceptor w/PBS and Alg template, C-A mismatched base pair on 3′ end of acceptor, cofactor 1 mM, normalized to ATP = 1.0) | ligation yield in the matched case (LP3′T Acceptor w/PBS and Alg template, T-A matched base pair on 3′ end of acceptor, cofactor 1 mM, normalized to ATP = 1.0) | specificity number (matched (T-A) yield divided by mismatched (C-A) yield, greater than one = improved ligation specificity) | discrimination of modified cofactor between matched and mismatched templates
1 | Nc1ncnc2c1ncn2[C@H]1C[C@H](O)[C@@H](COP(=O)(O)OP(=O)(O)OP(=O)(O)O)O1 [2′-deoxy-ATP, 2′-deoxy-adenosine-5′-triphosphate] | 0.18 | 1.34 | 7.44 | lead modifications of interest
2 | Nc1ncnc2c1ncn2[C@H]1C[C@H](N)[C@@H](COP(=O)(O)OP(=O)(O)OP(=O)(O)O)O1 [3′-amino-2′,3′-dideoxy-adenosine-5′-triphosphate] |  |  |  | lead modifications of interest
3 | Nc1ncnc2c1ncn2[C@@H]1O[C@H](COP(O)(=S)OP(=O)(O)OP(=O)(O)O)[C@@H](O)[C@H]1O (stereo partly drawn) [5′-alpha-thio-adenosine-5′-triphosphate] |  |  |  | lead modifications of interest
